Measured values published in PubChem BioAssay AID222 (DTP/NCI, 2004).
Several values for one entry are separate records, joined by “and”; a condition that tells them apart may be missing. Equal values may be shown once. Toxic doses and inconclusive results are not listed. The calls were made as follows: active = survival T/C of 150% or more; inactive = T/C below 125% in these data.

Test system: C57BL/6 mice, intracerebral ependymoblastoma, median survival T/C
Test: NCI In Vivo Anticancer Drug Screen. Data for tumor model Ependymoblastoma (intracerebral) in C57BL/6 mice
Conditions: endpoint: median survival time, higher = longer survival
Procedure: The antitumor activity of compounds was measured in mice bearing transplantable tumors. Survival or tumor size were measured and the results are expressed as the measurement made in the treated group (T) divided by the measurement made in the vehicle treated control group (C). The tumor model used in this assay is Ependymoblastoma (intracerebral) in C57BL/6 mice

[1] = dose: 64.0 mg/kg/injection, schedule: Q01DX005 (ip), vehicle: Klucel (hydroxypropylcellulose) (HPC)
[2] = dose: 128.0 mg/kg/injection, schedule: Q01DX005 (ip), vehicle: Klucel (hydroxypropylcellulose) (HPC)
[3] = dose: 256.0 mg/kg/injection, schedule: Q01DX005 (ip), vehicle: Klucel (hydroxypropylcellulose) (HPC)
[4] = dose: 16.0 mg/kg/injection, schedule: Q01DX005 (ip), vehicle: saline with Tween-80
[5] = dose: 32.0 mg/kg/injection, schedule: Q01DX005 (ip), vehicle: saline with Tween-80

Measured: T/C

c1ccc([C@H]2CN3CCSC3=N2)cc1
inactive: dose: 5.0 mg/kg/injection, schedule: Q01DX005 (ip), vehicle: saline 103 % of control | dose: 5.0 mg/kg/injection, schedule: Q01DX009 (ip), vehicle: saline 99 % of control | dose: 10.0 mg/kg/injection, schedule: Q01DX005 (ip), vehicle: saline 96 % of control | dose: 10.0 mg/kg/injection, schedule: Q01DX009 (ip), vehicle: saline 113 % of control | dose: 20.0 mg/kg/injection, schedule: Q01DX005 (ip), vehicle: saline 101 % of control | dose: 20.0 mg/kg/injection, schedule: Q01DX009 (ip), vehicle: saline 107 % of control | dose: 40.0 mg/kg/injection, schedule: Q01DX005 (ip), vehicle: saline 101 % of control

CCN(CC)c1ccc2cc3ccc(=[N+](CC)CC)cc-3oc2c1
inactive: dose: 4.0 mg/kg/injection, schedule: Q01DX005 (ip), vehicle: saline 100 % of control | dose: 8.0 mg/kg/injection, schedule: Q01DX005 (ip), vehicle: saline 107 % of control

Cc1ncc([N+](=O)[O-])n1CCO
inactive: [1] 103 % of control | [2] 99 % of control | [3] 107 % of control | dose: 512.0 mg/kg/injection, schedule: Q01DX005 (ip), vehicle: Klucel (hydroxypropylcellulose) (HPC) 111 % of control | dose: 1024.0 mg/kg/injection, schedule: Q01DX005 (ip), vehicle: Klucel (hydroxypropylcellulose) (HPC) 94 % of control

CCC1CC2CC(c3cc4c(cc3OC)N(C)C3C(O)(C(=O)OC)C(OC(C)=O)C5(CC)C=CCN6CCC43C65)c3[nH]c4ccccc4c3CCN(C1)C2 (stereo not drawn)
inactive: dose: 0.05 mg/kg/injection, schedule: Q01DX005 (ip), vehicle: saline 108 % of control | dose: 0.1 mg/kg/injection, schedule: Q01DX005 (ip), vehicle: saline 112 % of control | dose: 0.2 mg/kg/injection, schedule: Q01DX005 (ip), vehicle: saline 97 % of control | dose: 0.4 mg/kg/injection, schedule: Q01DX005 (ip), vehicle: saline 119 % of control | dose: 0.8 mg/kg/injection, schedule: Q01DX005 (ip), vehicle: saline 107 % of control | dose: 3.2 mg/kg/injection, schedule: Q01DX005 (ip), vehicle: saline 96 % of control | dose: 6.4 mg/kg/injection, schedule: Q01DX005 (ip), vehicle: saline 105 % of control | dose: 12.8 mg/kg/injection, schedule: Q01DX005 (ip), vehicle: saline 102 % of control

O=c1c(O)c(-c2ccc(O)c(O)c2)oc2cc(O)cc(O)c12
inactive: dose: 12.5 mg/kg/injection, schedule: Q01DX005 (ip), vehicle: Klucel (hydroxypropylcellulose) (HPC) 95 % of control | dose: 12.5 mg/kg/injection, schedule: Q01DX005 (ip), vehicle: other 107 % of control | dose: 25.0 mg/kg/injection, schedule: Q01DX005 (ip), vehicle: Klucel (hydroxypropylcellulose) (HPC) 104 % of control | dose: 25.0 mg/kg/injection, schedule: Q01DX005 (ip), vehicle: other 93 % of control | dose: 50.0 mg/kg/injection, schedule: Q01DX005 (ip), vehicle: Klucel (hydroxypropylcellulose) (HPC) 100 % of control | dose: 50.0 mg/kg/injection, schedule: Q01DX005 (ip), vehicle: other 91 % of control | dose: 100.0 mg/kg/injection, schedule: Q01DX005 (ip), vehicle: Klucel (hydroxypropylcellulose) (HPC) 99 % of control | dose: 100.0 mg/kg/injection, schedule: Q01DX005 (ip), vehicle: other 102 % of control | dose: 200.0 mg/kg/injection, schedule: Q01DX005 (ip), vehicle: other 105 % of control

COc1cc2cc3c4cc(OC)c(OC)cc4cc[n+]3c(C)c2cc1OC (tested in a mixture with another compound)
inactive: dose: 8.0 mg/kg/injection, schedule: Q01DX001 (ip), vehicle: saline 98 % of control | dose: 16.0 mg/kg/injection, schedule: Q01DX001 (ip), vehicle: saline 91 % of control | dose: 16.0 mg/kg/injection, schedule: Q#A X002 (ip), vehicle: saline 94 % of control | dose: 32.0 mg/kg/injection, schedule: Q01DX001 (ip), vehicle: saline 90 % of control | dose: 32.0 mg/kg/injection, schedule: Q01DX005 (ip), vehicle: Klucel (hydroxypropylcellulose) (HPC) 89 % of control | dose: 32.0 mg/kg/injection, schedule: Q#A X002 (ip), vehicle: saline 97 % of control and 105 % of control | dose: 64.0 mg/kg/injection, schedule: Q01DX001 (oral), vehicle: saline 100 % of control and 104 % of control | [1] 103 % of control and 107 % of control | dose: 64.0 mg/kg/injection, schedule: Q#A X002 (ip), vehicle: saline 111 % of control | dose: 128.0 mg/kg/injection, schedule: Q01DX001 (oral), vehicle: saline 100 % of control and 103 % of control | [2] 118 % of control and 121 % of control | dose: 128.0 mg/kg/injection, schedule: Q#A X002 (ip), vehicle: saline 103 % of control and 106 % of control | dose: 256.0 mg/kg/injection, schedule: Q01DX001 (ip), vehicle: saline 87 % of control | dose: 256.0 mg/kg/injection, schedule: Q01DX001 (oral), vehicle: saline 88 % of control and 103 % of control | [3] 118 % of control | dose: 256.0 mg/kg/injection, schedule: Q#A X002 (ip), vehicle: saline 87 % of control and 98 % of control | dose: 512.0 mg/kg/injection, schedule: Q01DX001 (oral), vehicle: saline 100 % of control and 102 % of control | dose: 1024.0 mg/kg/injection, schedule: Q01DX001 (oral), vehicle: saline 100 % of control and 107 % of control

O=S(=O)(O)O
inactive: [4] 90 % of control | [5] 94 % of control | dose: 64.0 mg/kg/injection, schedule: Q01DX005 (ip), vehicle: saline with Tween-80 112 % of control

COc1ccc2c(c1O)-c1cc(O)cc3c1C(C2)N(CCCl)CC3 (stereo not drawn)
inactive: dose: 4.0 mg/kg/injection, schedule: Q01DX005 (ip), vehicle: saline with Tween-80 95 % of control and 98 % of control | dose: 8.0 mg/kg/injection, schedule: Q01DX005 (ip), vehicle: saline with Tween-80 98 % of control | [4] 94 % of control and 100 % of control | [5] 110 % of control

O=[N+]([O-])O.[Ga]
inactive: dose: 32.0 mg/kg/injection, schedule: Q01DX005 (ip), vehicle: saline 110 % of control

COS(C)(=O)=O
inactive: dose: 16.0 mg/kg/injection, schedule: Q01DX005 (ip), vehicle: saline 113 % of control
